In PubChem BioAssay AID330 (DTP/NCI, 2004):
Values joined by “and” are separate entries in the source; they are usually repeats but may differ in a detail not shown here. Equal entries are not always repeated. Inconclusive results and toxic doses are left out. Rule for the calls: active = survival T/C of 150% or more; inactive = T/C below 125% in these data.

System: P388 leukemia ip, CD2F1 mice, survival T/C
Experiment: NCI In Vivo Anticancer Drug Screen. Data for tumor model P388 Leukemia (intraperitoneal) in CD2F1 (CDF1) mice
Settings: endpoint: median survival time, higher = longer survival
In short: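 Mice carrying the transplanted tumor received test compound or vehicle. Survival was recorded in each group, and the value is the treated-group measurement divided by that of the vehicle-treated control group.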

[1] = dose: 50.0 mg/kg/injection, schedule: Q01DX009 (ip), vehicle: saline with Tween-80
[2] = dose: 100.0 mg/kg/injection, schedule: Q01DX009 (ip), vehicle: saline with Tween-80
[3] = dose: 100.0 mg/kg/injection, schedule: Q04DX003 (ip), vehicle: saline with Tween-80
[4] = dose: 200.0 mg/kg/injection, schedule: Q04DX003 (ip), vehicle: saline with Tween-80
[5] = dose: 400.0 mg/kg/injection, schedule: Q04DX003 (ip), vehicle: saline with Tween-80
[6] = dose: 50.0 mg/kg/injection, schedule: Q01DX005 (ip), vehicle: Klucel (hydroxypropylcellulose) (HPC)
[7] = dose: 100.0 mg/kg/injection, schedule: Q01DX005 (ip), vehicle: Klucel (hydroxypropylcellulose) (HPC)
[8] = dose: 200.0 mg/kg/injection, schedule: Q01DX005 (ip), vehicle: Klucel (hydroxypropylcellulose) (HPC)
[9] = dose: 30.0 mg/kg/injection, schedule: Q01DX005 (ip), vehicle: Klucel (hydroxypropylcellulose) (HPC)
[10] = dose: 60.0 mg/kg/injection, schedule: Q01DX005 (ip), vehicle: Klucel (hydroxypropylcellulose) (HPC)
[11] = dose: 120.0 mg/kg/injection, schedule: Q01DX005 (ip), vehicle: Klucel (hydroxypropylcellulose) (HPC)
[12] = dose: 240.0 mg/kg/injection, schedule: Q01DX005 (ip), vehicle: Klucel (hydroxypropylcellulose) (HPC)
[13] = dose: 50.0 mg/kg/injection, schedule: Q01DX009 (ip), vehicle: saline
[14] = dose: 100.0 mg/kg/injection, schedule: Q01DX009 (ip), vehicle: saline
[15] = dose: 200.0 mg/kg/injection, schedule: Q01DX009 (ip), vehicle: saline
[16] = dose: 25.0 mg/kg/injection, schedule: Q01DX009 (ip), vehicle: saline
[17] = dose: 25.0 mg/kg/injection, schedule: Q01DX009 (ip), vehicle: Klucel (hydroxypropylcellulose) (HPC)
[18] = dose: 50.0 mg/kg/injection, schedule: Q01DX005 (ip), vehicle: saline with Tween-80
[19] = dose: 100.0 mg/kg/injection, schedule: Q01DX005 (ip), vehicle: saline with Tween-80
[20] = dose: 200.0 mg/kg/injection, schedule: Q01DX005 (ip), vehicle: saline with Tween-80
[21] = dose: 50.0 mg/kg/injection, schedule: Q01DX009 (ip), vehicle: Klucel (hydroxypropylcellulose) (HPC)
[22] = dose: 100.0 mg/kg/injection, schedule: Q01DX009 (ip), vehicle: Klucel (hydroxypropylcellulose) (HPC)
[23] = dose: 12.5 mg/kg/injection, schedule: Q01DX005 (ip), vehicle: saline with Tween-80
[24] = dose: 25.0 mg/kg/injection, schedule: Q01DX005 (ip), vehicle: saline with Tween-80

Measured: T/C

COc1cc(OC2OC(CO)C(O)C(O)C2O)c2c(O)c3c(=O)cc(C)oc3cc2c1 (stereo not drawn)
inactive: dose: 3.75 mg/kg/injection, schedule: Q01DX009 (ip), vehicle: Klucel (hydroxypropylcellulose) (HPC) 100 % of control | dose: 7.5 mg/kg/injection, schedule: Q01DX009 (ip), vehicle: Klucel (hydroxypropylcellulose) (HPC) 100 % of control | dose: 15.0 mg/kg/injection, schedule: Q01DX009 (ip), vehicle: Klucel (hydroxypropylcellulose) (HPC) 94 % of control | dose: 30.0 mg/kg/injection, schedule: Q01DX009 (ip), vehicle: Klucel (hydroxypropylcellulose) (HPC) 101 % of control

O=S(=O)(Oc1ccc2ccccc2c1)C(F)(F)C(F)(F)C(F)(F)C(F)(F)F
inactive: [1] 100 % of control | [2] 108 % of control | dose: 200.0 mg/kg/injection, schedule: Q01DX009 (ip), vehicle: saline with Tween-80 108 % of control

O=c1[nH]cnc2cc(N3CCOCC3)c([N+](=O)[O-])cc12
inactive: dose: 50.0 mg/kg/injection, schedule: Q04DX003 (ip), vehicle: saline with Tween-80 105 % of control | [3] 100 % of control | [4] 100 % of control

CCC1(C)CCC(C)(CC)c2c(C)cc(C(C)=O)cc21 (stereo not drawn)
inactive: [3] 114 % of control | [4] 97 % of control | [5] 92 % of control

CCC(=O)Nc1nnc(SCCCCCCSc2nnc(NC(=O)CC)s2)s1
inactive: [6] 90 % of control | [7] 88 % of control | [8] 91 % of control

Nc1ccc(S(=O)c2ccc(N)cc2)cc1
inactive: dose: 6.25 mg/kg/injection, schedule: Q04DX003 (ip), vehicle: saline 118 % of control | dose: 12.5 mg/kg/injection, schedule: Q04DX003 (ip), vehicle: saline 107 % of control | dose: 25.0 mg/kg/injection, schedule: Q04DX003 (ip), vehicle: saline 104 % of control | dose: 50.0 mg/kg/injection, schedule: Q04DX003 (ip), vehicle: saline 109 % of control

Clc1ccc(-c2csc3nc(-c4cccs4)nn23)cc1
inactive: [9] 97 % of control | [10] 95 % of control | [11] 95 % of control | [12] 93 % of control

CCS/C(C#N)=C(/Br)c1ccc(OC)cc1
inactive: [1] 98 % of control | [2] 100 % of control

CC(=O)Nc1nc(C)c(S(=O)(=O)Cl)s1
inactive: [13] 102 % of control | [14] 98 % of control | [15] 102 % of control | dose: 400.0 mg/kg/injection, schedule: Q01DX009 (ip), vehicle: saline 94 % of control

C[S+](C)c1ccccc1NC(C)(C)C
inactive: dose: 6.25 mg/kg/injection, schedule: Q01DX009 (ip), vehicle: saline + alcohol 99 % of control | dose: 12.5 mg/kg/injection, schedule: Q01DX009 (ip), vehicle: saline + alcohol 100 % of control | dose: 25.0 mg/kg/injection, schedule: Q01DX009 (ip), vehicle: saline + alcohol 96 % of control | [16] 101 % of control

CCCCC([Se])=Nc1ccc(Br)cc1
inactive: dose: 6.25 mg/kg/injection, schedule: Q01DX009 (ip), vehicle: Klucel (hydroxypropylcellulose) (HPC) 106 % of control | dose: 12.5 mg/kg/injection, schedule: Q01DX009 (ip), vehicle: Klucel (hydroxypropylcellulose) (HPC) 104 % of control | [17] 104 % of control

C=CN=NNc1ccccc1
inactive: dose: 100.0 mg/kg/injection, schedule: Q04DX003 (ip), vehicle: saline + Tween-80 + alcohol 105 % of control | dose: 200.0 mg/kg/injection, schedule: Q04DX003 (ip), vehicle: saline + Tween-80 + alcohol 106 % of control | dose: 400.0 mg/kg/injection, schedule: Q04DX003 (ip), vehicle: saline + Tween-80 + alcohol 110 % of control

O=S(=O)(Nc1ccc(Cl)c(C(F)(F)F)c1)c1ccc(F)cc1
inactive: [18] 100 % of control | [19] 91 % of control | [20] 98 % of control

CCN(CCO)CC(O)Cn1cnc2c(N)ncnc21 (stereo not drawn)
inactive: [10] 95 % of control | [11] 94 % of control | [12] 97 % of control

CC(=O)Nc1cnc2c(nc3cc(C)ccn32)c1C
inactive: dose: 60.0 mg/kg/injection, schedule: Q01DX005 (ip), vehicle: saline with Tween-80 106 % of control | dose: 120.0 mg/kg/injection, schedule: Q01DX005 (ip), vehicle: saline with Tween-80 100 % of control | dose: 240.0 mg/kg/injection, schedule: Q01DX005 (ip), vehicle: saline with Tween-80 97 % of control

CN(C)C1=C(Cl)C(=O)c2ccccc2C1=O
inactive: [17] 100 % of control | [21] 100 % of control | [22] 97 % of control

COC(=O)c1nc(=S)[nH]c(C(=O)OC)c1C(=O)c1ccc([N+](=O)[O-])cc1
inactive: [10] 101 % of control | [11] 95 % of control | [12] 91 % of control

COC(=O)C1=COC(C)C2CN3CCc4c([nH]c5cc(OC)ccc45)C3CC12 (stereo not drawn)
inactive: [18] 91 % of control | [19] 109 % of control | [20] 109 % of control

CCOC(=O)c1ccc(NC(=O)Nc2ccc(NC(C)=O)cc2)cc1
inactive: dose: 15.0 mg/kg/injection, schedule: Q01DX005 (ip), vehicle: Klucel (hydroxypropylcellulose) (HPC) 95 % of control | [9] 96 % of control | [10] 87 % of control and 88 % of control and 93 % of control | [11] 87 % of control | [12] 87 % of control

CCSCCCC(=O)O
inactive: [16] 100 % of control | [13] 100 % of control | [14] 100 % of control

NCc1ccc(O)c(O)c1O
inactive: [13] 121 % of control and 123 % of control | [14] 118 % of control and 120 % of control | [15] 124 % of control and 88 % of control

Clc1ccc2[nH]c3ccc(Cl)cc3c2c1
inactive: [6] 104 % of control | [7] 113 % of control | [8] 113 % of control

CN(C)CCCN1C=CC(=C2C(=O)c3ccccc3C2=O)C=C1
inactive: [21] 88 % of control | [22] 86 % of control | dose: 200.0 mg/kg/injection, schedule: Q01DX009 (ip), vehicle: Klucel (hydroxypropylcellulose) (HPC) 97 % of control

CCOc1ccc2c(O)csc2c1
inactive: [3] 100 % of control | [4] 100 % of control | [5] 90 % of control

CC1(CBr)C2CCC1C(=O)C2 (stereo not drawn)
inactive: dose: 6.25 mg/kg/injection, schedule: Q01DX005 (ip), vehicle: saline with Tween-80 100 % of control | [23] 96 % of control | [24] 96 % of control

NC(=O)C1=NOC(C(N)=O)C1C1OC(CO)C(O)C1O (stereo not drawn)
inactive: dose: 25.0 mg/kg/injection, schedule: Q01DX005 (ip), vehicle: other 98 % of control | dose: 50.0 mg/kg/injection, schedule: Q01DX005 (ip), vehicle: other 97 % of control | dose: 100.0 mg/kg/injection, schedule: Q01DX005 (ip), vehicle: other 95 % of control | dose: 200.0 mg/kg/injection, schedule: Q01DX005 (ip), vehicle: other 105 % of control

CCC(O)c1ccco1 (stereo not drawn)
inactive: [23] 109 % of control | [24] 100 % of control | [18] 111 % of control and 112 % of control

COc1ccc(-n2c(=O)c(N=Nc3ccc(C)cc3)c(O)n(-c3ccccc3Cl)c2=S)cc1
inactive: dose: 50.0 mg/kg/injection, schedule: Q01DX001 (ip), vehicle: Klucel (hydroxypropylcellulose) (HPC) 96 % of control | dose: 100.0 mg/kg/injection, schedule: Q01DX001 (ip), vehicle: Klucel (hydroxypropylcellulose) (HPC) 99 % of control | dose: 200.0 mg/kg/injection, schedule: Q01DX001 (ip), vehicle: Klucel (hydroxypropylcellulose) (HPC) 96 % of control

NC/C(=N\Nc1ccc([N+](=O)[O-])cc1[N+](=O)[O-])c1ccccc1
inactive: dose: 100.0 mg/kg/injection, schedule: Q04DX003 (ip), vehicle: saline 100 % of control | dose: 200.0 mg/kg/injection, schedule: Q04DX003 (ip), vehicle: saline 113 % of control | dose: 400.0 mg/kg/injection, schedule: Q04DX003 (ip), vehicle: saline 95 % of control

N=C(N)SCCCN
inactive: [16] 95 % of control | [13] 103 % of control | [14] 112 % of control | [15] 112 % of control
